We go through 2 compounds from PMC12595434, “Development of retinoid nuclear receptor pathway antagonists through targeting aldehyde dehydrogenase 1A3” (iScience, 2025).

Series [1] addresses op-kappa (Homo sapiens, UniProt P41145). Put plainly: Off-target profiling panel. It is filed as binding. The settings on record: read-out: Inhibition by MBE1 at 10 μM (%).
The target in series [2] is Eta agonist (Homo sapiens, UniProt P25101). As to the kind of experiment: Off-target profiling panel. Format: cell-based. The following applies: read-out: Inhibition by MBE1 at 10 μM (%).
Sequence of Eta agonist (P25101 21-427): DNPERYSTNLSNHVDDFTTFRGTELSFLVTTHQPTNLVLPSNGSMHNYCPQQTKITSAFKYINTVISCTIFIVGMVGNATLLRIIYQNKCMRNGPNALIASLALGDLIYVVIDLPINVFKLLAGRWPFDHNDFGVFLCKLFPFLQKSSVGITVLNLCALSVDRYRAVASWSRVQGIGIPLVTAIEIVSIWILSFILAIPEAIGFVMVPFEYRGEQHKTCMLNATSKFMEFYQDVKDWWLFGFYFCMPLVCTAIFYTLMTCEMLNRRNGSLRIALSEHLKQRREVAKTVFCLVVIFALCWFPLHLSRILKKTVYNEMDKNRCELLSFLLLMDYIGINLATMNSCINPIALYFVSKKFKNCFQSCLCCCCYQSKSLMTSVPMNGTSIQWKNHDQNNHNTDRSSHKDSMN
For series [3], the target named is T1, C19orf66 (Homo sapiens, UniProt Q9NUL5).
T1 construct: Treated A375 cells were harvested from 10 × 15 cm plates; endogenous in cells; host or cells: A375 melanoma cells
T1 sequence (Q9NUL5 whole entry): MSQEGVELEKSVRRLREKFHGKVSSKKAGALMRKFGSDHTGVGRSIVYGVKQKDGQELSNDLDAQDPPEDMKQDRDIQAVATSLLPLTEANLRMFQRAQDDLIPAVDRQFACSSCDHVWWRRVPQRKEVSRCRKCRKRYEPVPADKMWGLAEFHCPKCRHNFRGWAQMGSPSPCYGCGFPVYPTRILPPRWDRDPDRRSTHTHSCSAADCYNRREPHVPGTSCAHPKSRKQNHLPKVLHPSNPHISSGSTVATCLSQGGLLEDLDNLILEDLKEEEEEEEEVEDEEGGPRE
Put plainly: Thermal proteome profiling (TPP) in A375 cells. Format: cell-based. The following applies: C19orf66, 1 uM.

The target in series [4] is T2, PVRL1 (Homo sapiens, UniProt Q15223).
T2 construct: Treated A375 cells were harvested from 10 × 15 cm plates; endogenous in cells; host or cells: A375 melanoma cells
T2 sequence (Q15223 31-517): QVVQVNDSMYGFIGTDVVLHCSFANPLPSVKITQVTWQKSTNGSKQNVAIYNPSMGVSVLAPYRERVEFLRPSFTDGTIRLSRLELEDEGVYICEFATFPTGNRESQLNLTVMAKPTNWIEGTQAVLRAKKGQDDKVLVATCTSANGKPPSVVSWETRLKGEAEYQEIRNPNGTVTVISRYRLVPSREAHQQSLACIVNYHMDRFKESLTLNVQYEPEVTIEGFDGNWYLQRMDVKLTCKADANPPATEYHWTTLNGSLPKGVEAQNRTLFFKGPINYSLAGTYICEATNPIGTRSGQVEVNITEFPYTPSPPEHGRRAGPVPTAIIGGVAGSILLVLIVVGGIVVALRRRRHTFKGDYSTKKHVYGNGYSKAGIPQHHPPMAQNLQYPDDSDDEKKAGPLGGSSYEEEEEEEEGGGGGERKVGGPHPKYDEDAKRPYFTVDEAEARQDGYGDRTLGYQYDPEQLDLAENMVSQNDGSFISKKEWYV
As to the kind of experiment: Thermal proteome profiling (TPP) in A375 cells. The following applies: PVRL1, 1 uM. Format: cell-based.

In series [5] the target is GR (Homo sapiens, UniProt P04150). As to the kind of experiment: Off-target profiling panel. It is filed as binding. The settings on record: read-out: Inhibition by MBE1 at 10 μM (%).
Sequence of GR (P04150 whole entry): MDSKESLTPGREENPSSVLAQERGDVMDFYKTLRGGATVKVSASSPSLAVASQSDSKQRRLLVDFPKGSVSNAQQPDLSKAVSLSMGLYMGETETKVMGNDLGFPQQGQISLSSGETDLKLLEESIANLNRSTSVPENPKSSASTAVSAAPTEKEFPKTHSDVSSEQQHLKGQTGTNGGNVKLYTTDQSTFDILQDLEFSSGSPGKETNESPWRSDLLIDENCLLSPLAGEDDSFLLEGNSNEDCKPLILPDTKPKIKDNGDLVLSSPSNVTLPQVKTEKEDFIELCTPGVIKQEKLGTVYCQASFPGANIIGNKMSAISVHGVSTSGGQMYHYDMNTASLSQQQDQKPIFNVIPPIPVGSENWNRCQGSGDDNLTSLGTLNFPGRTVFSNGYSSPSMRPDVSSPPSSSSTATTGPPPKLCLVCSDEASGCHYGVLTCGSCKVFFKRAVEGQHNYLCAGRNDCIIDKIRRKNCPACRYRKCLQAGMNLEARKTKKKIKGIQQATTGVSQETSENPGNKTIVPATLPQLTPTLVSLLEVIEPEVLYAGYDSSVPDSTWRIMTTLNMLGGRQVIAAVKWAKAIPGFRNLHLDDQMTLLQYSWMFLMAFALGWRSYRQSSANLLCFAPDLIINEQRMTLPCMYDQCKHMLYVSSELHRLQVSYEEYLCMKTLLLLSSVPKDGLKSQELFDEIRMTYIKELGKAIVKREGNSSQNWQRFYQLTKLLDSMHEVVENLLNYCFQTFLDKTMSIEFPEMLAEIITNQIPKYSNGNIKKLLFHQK
The target in series [6] is T3, ALDH1A3 in MCF7 or SUM159-M1a-ALDH1A3 knockout cells (Homo sapiens, UniProt P47895).
T3 construct: expressed in transfected cells; host or cells: MCF7 wild-type; SUM159-M1a-ALDH1A3 knockout
T3 sequence (P47895 whole entry): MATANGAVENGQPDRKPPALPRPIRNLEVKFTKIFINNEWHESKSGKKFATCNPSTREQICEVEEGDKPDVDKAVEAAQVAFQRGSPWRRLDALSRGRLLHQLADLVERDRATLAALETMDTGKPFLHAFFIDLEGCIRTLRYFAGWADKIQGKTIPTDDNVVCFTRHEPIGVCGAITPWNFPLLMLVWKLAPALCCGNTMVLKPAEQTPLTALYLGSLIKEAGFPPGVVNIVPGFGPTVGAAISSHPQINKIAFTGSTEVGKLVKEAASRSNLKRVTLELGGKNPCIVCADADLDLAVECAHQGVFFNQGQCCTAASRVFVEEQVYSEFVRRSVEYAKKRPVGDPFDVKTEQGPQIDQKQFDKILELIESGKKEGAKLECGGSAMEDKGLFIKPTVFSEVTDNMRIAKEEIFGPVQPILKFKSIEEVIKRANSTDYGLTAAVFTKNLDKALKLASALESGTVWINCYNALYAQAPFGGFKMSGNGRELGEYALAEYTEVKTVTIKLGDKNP
Put plainly: Aldefluor dose titration, cells with ectopic ALDH1A3. It is filed as cell-based. How it is done: Next, we developed three orthogonal methods to assess MBE1.5 selectivity and potency in cellular assays, as these cellular assays provide a more physiologically relevant method to assess target engagement and specificity. […] We confirmed expression of each enzyme and then performed a dose titration of the Aldefluor assay in each cell derivative with MBE1.5. […] Therefore, we performed thermal proteome profiling (TPP) on A375 melanoma cells exposed to DMSO, 100 nM MBE1, and 1 μM MBE1. […] These two doses would be expected to saturate ALDH1A3 binding based on the biochemical affinity while the high dose may be expected to identify potential MBE1 off-targets. […] We next assessed for melting point changes in the dataset using a 1.5°C cutoff and p < 0.05; 112 proteins were identified in the comparison between 100 nM MBE1 and DMSO, including ALDH1A3. […] Finally, we validated that MBE1.5 blocked the physiological function of ALDH1A3 by testing a dose titration of MBE1.5 in the retinoid inhibition assay using MCF7-ALDH1A3 cell-based readout.
In addition, cells were suspended at a concentration of 100,000 cells per mL. […] Cells were analyzed by a BD LSRII for flow cytometry and were sorted using a FACSAria Fusion cell sorter (BD Biosciences) equipped with a 70 micron nozzle. […]

Series [7] in a line: Serum concentration on MBE1.5-formulated diet. It is filed as in vivo, mouse. How it is done:
Finally, to establish a pharmacokinetic profile throughout dosing, MBE1.5 was analyzed in serum 12 h post dose on day 1 and day 7. […] To accommodate consistent plasma concentrations without accumulation, MBE1.5 was formulated to a lower concentration in mouse diet that would administer a dose equivalent to 25 mg/kg daily. This formulated diet was provided to mice for 5 days, at which point serum was analyzed for MBE1.5 concentration at 6:30 a.m. and 4:00 p.m. on day 5 to capture differences in mouse feeding cycles.
No statistical method was used to predetermine the number of animals needed across experiments. […]
proteome profiling in A375 cells was performed in DMSO and at two concentrations of MBE1 using a 10 temperature melting curve for isolation, followed by proteomic analysis, filtering and mapping peptide frequency as a composite melting curve, n=3 biological replicates per condition-temperature. […] ALDH1A3 or NPTN were assessed by WB to confirm the stabilization of ALDH1A3 but not NPTN (55kD, as indicated by arrow) by MBE1. […]
analysis of MBE1.5 following identification of proper formulations and administration to fasted male CD1 mice at 1 mg/kg intravenous (IV) and 10 mg/kg oral gavage (PO). n = 3 mice per arm. […] Upon acclimation, serum MBE1.5 concentrations were calculated following blood draws at 6:30 am and 4 pm. n = 5 mice per arm. […]

Sequence of op-kappa (P41145 whole entry): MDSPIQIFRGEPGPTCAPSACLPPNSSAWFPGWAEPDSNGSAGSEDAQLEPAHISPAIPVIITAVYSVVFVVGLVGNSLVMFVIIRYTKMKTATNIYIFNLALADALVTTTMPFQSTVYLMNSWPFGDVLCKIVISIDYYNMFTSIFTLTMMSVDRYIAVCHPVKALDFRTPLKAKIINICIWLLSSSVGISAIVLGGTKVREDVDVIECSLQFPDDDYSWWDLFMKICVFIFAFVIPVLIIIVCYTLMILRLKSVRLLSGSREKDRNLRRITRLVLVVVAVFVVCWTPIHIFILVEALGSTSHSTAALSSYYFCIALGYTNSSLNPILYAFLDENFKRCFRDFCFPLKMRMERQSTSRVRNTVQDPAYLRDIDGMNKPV

As usually defined, the inhibition is the relative decrease from the control value, in per cent. As for `CCc1cnccc1C(=O)Nc1cc2c(cc1F)NC(=O)CC2` [MBE1, 3-ethyl-N-(7-fluoro-2-oxo-3,4-dihydro-1H-quinolin-6-yl)pyridine-4-carboxamide], the values for the inhibition at 10 µM in series [1], in series [2] and in series [5] were -12.6%, -0.16% and -13.5%, respectively. Moreover, the “1uM MBE1 Tm” value in series [3] worked out at 53.8379; in series [4] it was 64. Besides, the ΔTm at 1 µM in series [4] (A-375, read-out: DMSO-1uM MBE1 TM shift) is -15.1 °C.

Take `CCc1ccccc1C(=O)Nc1cc2c(cc1F)NC(=O)CC2` [MBE1.5, 2-ethyl-N-(7-fluoro-2-oxo-3,4-dihydro-1H-quinolin-6-yl)benzamide]: in series [6], the “inhibition of ALDH1A3 in Aldefluor assay (in words)” value is “high potency”. The concentration at 5 day in series [7] (C57BL/6, mouse, serum, oral, 25 mg/kg daily, day 5, read-out: nadir serum concentration) is roughly 270 nM. Besides, the “nadir serum concentration as multiple of IC50 in the retinoid assay” value in series [7] (day 5) was “more than 100 fold”.
